Tested on: female Sprague Daley rats
Experiment: Isovolumetric bladder contraction model (rat)
Type: in vivo
Conditions: single administration 1 mg/kg & 15 mg/kg, compared to vehicle
Excerpt: 11. Isovolumetric Bladder Contraction Model (Rat) The aim of this study was to test the efficacy of Compound Examples on bladder function, in particularly on contraction frequency/intercontraction interval and contraction magnitude/contraction amplitude. The experimental setup for performing the isovolumetric bladder measurements was adapted to a previous descripted protocol (Yoshiyama M, de Groat W C. Am J Physiol Regul Integr Comp Physiol 280: […]-[…], 2001). Strong presence and target induction of BDKRB1 in comparison to BDKRB2 has been verified by gene expression analysis in bladders removed from rats after performance of the isovolumetric bladder contraction model in contrast to bladders of naïve, untreated rats. Immunohistochemistry confirmed the presence of BDKRB1 in bladders of rats after contraction, too. […] At least five cycles of isovolumetric bladder contractions were recorded before the Compound Examples or vehicle alone (PEG400/Water (50/50(v/v))) were administered via the catheter in the Vena jugularis at different dosages. About 2 minutes after compound administration the next nine contraction cycles were recorded. The change in contraction amplitude and intercontraction interval of the recorded bladder pressure and bladder contractions was calculated by comparing the means before and after compound administration using GraphPad Prism 7 program.

Row | SMILES | intercontraction interval (ICI) | maximal pressure of bladder contractions
1 | O=C(O)c1cc(NC(=O)C2(c3ccc(C(F)(F)F)cc3F)CC2)ccc1-c1cnn(C2CCC2)c1 [Example 3, 2-(1-Cyclobutyl-1H-pyrazol-4-yl)-5-[({1-[2-fluoro-4-(trifluoromethyl)phenyl]cyclopropyl}carbonyl)amino]benzoic acid] | significant efficacy on prolonging | remained unchanged

Tested on: Bradykinin B1 agonist-induced secretion of IL-6
Experiment: Bradykinin B1 agonist-induced secretion of IL-6 in human IMR-90 cells
Type: cell-based
Conditions: 30 min compound, then 0.1 μM Lys-[Des-Arg9]Bradykinin and 0.1 μM Sar-[D-Phe8]-des-Arg9-Bradykinin for 5 hours
Excerpt: 2. Inhibitory Activity on Bradykinin B1 Agonist-Induced Secretion of IL-6 and IL-8 in Human IMR-90 Cells
The effect of the Compound Examples on secretion of the cytokine IL-6 and IL-8 has been investigated in the human foetal lung fibroblast IMR-90 cell line. Here the induction of the cytokine secretion was induced by the Bradykinin B1 agonists Lys-[Des-Arg9]Bradykinin (CAS 71800-36-7, Tocris Bioscience) and Sar-[D-Phe8]-des-Arg9-Bradykinin (CAS 126959-88-4, Tocris Bioscience) leading to the activation of the Bradykinin B1-driven signalling pathway. The inhibitory activity of the tested Compound Examples on Bradykinin B1 agonist-induced secretion of IL-6 and IL-8 is indicative for the compounds' prominent anti-inflammatory mode of action in kinin driven inflammation.
IMR-90 cells were cultured in Eagle's Minimum Essential Medium (EMEM) containing 2 mM L-glutamine, 1 g/L glucose, 1.5 g/L NaHCO3, 1 mM sodium pyruvate and non-essential amino acids (ATCC, 30-2003™) supplemented with 10% FBS (Biochrom, S0615) and 50 U/mL Penicillin, 50 μg/mL Streptomycin (PAA, P11-010). The assay was performed in EMEM and a cell density of […] IMR-90 cells/96-well. The Compound Examples have been serial diluted in 100% DMSO and evaluated at 8 different concentrations within the range of 3 nM and 10 μM and a final DMSO concentration of 0.4%. The IMR-90 cells have been incubated with the respective concentration of the compound for 30 min. The enhanced secretion of IL-6 and IL-8 was induced by the stimulation of these cells with 0.1 μM Lys-[Des-Arg9]Bradykinin (Tocris, catalogue no. 3225) and 0.1 μM Sar-[D-Phe8]-des-Arg9-Bradykinin (Tocris, catalogue no. 3230) for 5 hours at 37° C. and 5% CO2. Further, cells have been treated with Lys-[Des-Arg9]Bradykinin and Sar[D-Phe8]-des-Arg9-Bradykinin as neutral control and with 0.1% DMSO as inhibitor control. The amount of IL-6 and IL-8 in the supernatant was determined using the Human ProInflammatory Panel II (4-Plex) (MSD, K15025B) according to manufacturer's instruction. Briefly, supernatants were added onto assay plates and incubated at room temperature for 1-2 h with vigorous shaking at 600 rpm. Detection antibodies were then added onto the supernatants and incubated at room temperature for an additional 1-2 h with vigorous shaking at 600 rpm. Plates were washed three times with phosphate-buffered saline (PBS; 137 mM NaCl, 2.7 mM KC1, 6.5 mM Na2HP04, 1.7 mM KH2P04) containing 0.05% Tween-20 (Bio-Rad, 161-0781) and electrochemiluminescence detected using the MSD Sector Imager 6000 plate reader. The cell viability was measured using the CellTiter-Glo Luminescent Assay (Promega, G7571) following the manufacturers protocol. Briefly, the CellTiter-Glo Reagent was diluted with PBS (1:1) and added directly to cells. After incubation and shaking for 10 minutes luminescent signal was measured which is proportional to the amount of ATP present.
The effect of the compound on the amount of secreted cytokine has been calculated as 100/(measured cytokine concentration of neutral control-measured cytokine concentration of inhibitor control)*(measured cytokine concentration of compound dose-measured cytokine concentration of inhibitor control). IC50 values are determined using 4-parameter-fit.
The Compound Examples were tested in triplicates per plate and the inhibitory activity was determined as the relation between neutral and inhibitor control in percent. IC50 values were calculated using the 4-parameter logistic model.

Row | SMILES | IC50 [nM]
2 | O=C(O)c1cc(NC(=O)C2(c3ccc(C(F)(F)F)cc3F)CC2)ccc1-c1cc2ccccc2s1 [Example 1, 2-(1-Benzothiophen-2-yl)-5-[({1-[2-fluoro-4-(trifluoromethyl)phenyl]cyclopropyl}carbonyl)amino]benzoic acid] | 149
3 | CCC(F)(F)c1ccc(-c2ccc(NC(=O)C3(c4ccc(C(F)(F)F)cc4F)CC3)cc2C(=O)O)cn1 [Example 2, 2-[6-(1,1-Difluoropropyl)pyridin-3-yl]-5-[({1-[2-fluoro-4-(trifluoromethyl)-phenyl]cyclopropyl}carbonyl)amino]benzoic acid] | 113
4 | O=C(O)c1cc(NC(=O)C2(c3ccc(C(F)(F)F)cc3F)CC2)ccc1-c1cnn(C2CCC2)c1 [Example 3, 2-(1-Cyclobutyl-1H-pyrazol-4-yl)-5-[({1-[2-fluoro-4-(trifluoromethyl)phenyl]cyclopropyl}carbonyl)amino]benzoic acid] | 47
5 | O=C(O)c1cc(NC(=O)C2(c3ccc(OC(F)(F)F)cc3F)CC2)ccc1-c1ccc(C(F)F)nc1 [Example 5, 2-[6-(Difluoromethyl)pyridin-3-yl]-5-[({1-[2-fluoro-4-(trifluoromethoxy)phenyl]cyclopropyl}carbonyl)amino]benzoic acid] | 290
6 | O=C(O)c1cc(NC(=O)C2(c3ccc(C(F)(F)F)cc3F)CC2)ccc1-c1ccc(C(F)(F)F)nc1 [Example 6, 5-[({1-[2-Fluoro-4-(trifluoromethyl)phenyl]cyclopropyl}carbonyl)amino]-2-[6-(trifluoromethyl)pyridin-3-yl]benzoic acid] | 443
7 | O=C(O)c1cc(NC(=O)C2(c3ccc(C(F)(F)F)cc3F)CC2)cc(F)c1-c1ccc(C(F)(F)F)nc1 [Example 29, 3-Fluoro-5-[({1-[2-fluoro-4-(trifluoromethyl)phenyl]cyclopropyl}carbonyl)amino]-2-[6-(trifluoromethyl)pyridin-3-yl]benzoic acid] | 600
8 | O=C(O)c1cc(NC(=O)C2(c3ccc(C(F)(F)F)cc3F)CC2)cc(F)c1-c1cnn(C2CCC2)c1 [Example 42, 2-(1-Cyclobutyl-1H-pyrazol-4-yl)-3-fluoro-5-[({1-[2-fluoro-4-(trifluoromethyl)phenyl]cyclopropyl}carbonyl)amino]benzoic acid] | 70

— US12023319B2, “Carboxylic acid aromatic amides” (priority 2016, dated 2024)
